Literature values, collected in patent US6503482B1, “Non-chlorofluorocarbon aerosol formulations” (Schering Corporation, priority 1993, dated 2003).
Like-named read-outs stand apart in the source and are kept apart here.

Details: absolute pressure

vapor pressure (same value in psia): 84.7 psia | vapor pressure (stated too high for use in metered dose inhalators): 5.84×10^5 newton/meter^2 absolute
Structure (SMILES): FCC(F)(F)F [HFC 134a, 1,1,1,2 tetrafluoroethane]
